Several values for one entry are separate records, joined by “and”; a condition that tells them apart may be missing. Identical values can stand only once.
How the values were obtained:
[1] = tested on: SARS-CoV-2; assay: Viral loading determination via RT-qPCR in LC-HK2 cells; type: cell-based; settings: LC-HK2, RT-qPCR
[2] = tested on: VERO-CCL81 cells; assay: Cell viability assay (CellTiter-Glo), VERO-CCL81; type: cell-based; settings: for Cell viability (% control): VERO CCL81, 72 h, replicates of experiments 1 and 2
Protocol: VERO-CCL81 was seeded in 96-well plates at a density of 1.5×10^4 cells/well, while LC-HK2 was seeded at a density of 3×10^4 cells/well, following 24 h incubation at 37 °C and 5% CO2 atmosphere. The cell culture media was replaced by serial dilutions of the compounds and the cell viability was determined 72 h post-treatment via CellTiter-Glo® Luminescent Cell Viability Assay (Promega), following the manufacturer’s instructions. Luminescent signal was recorded using a CLARIOstar multi-mode microplate reader (BMG Labtech, Germany). Graphs were generated using GraphPad Prism software version 8.0 (La Jolla, CA, USA, www.graphpad.com). Samples deemed to be technical failures and extreme outlier were removed.

[3] = biological target: T1, CatL (Homo sapiens, UniProt P07711); assay: Cathepsin inhibition test, CatL; type: biochemical; settings: for Residual activity (Vi/V0): Fig. S3 panel b, single replicates
T1 construct: made in house
T1 sequence (P07711 114-333): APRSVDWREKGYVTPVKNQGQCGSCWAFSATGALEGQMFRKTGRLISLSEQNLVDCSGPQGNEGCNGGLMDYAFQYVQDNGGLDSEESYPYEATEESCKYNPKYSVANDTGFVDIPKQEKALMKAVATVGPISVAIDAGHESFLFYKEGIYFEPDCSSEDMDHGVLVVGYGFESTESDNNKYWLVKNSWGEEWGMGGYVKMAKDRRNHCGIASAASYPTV

[4] = tested on: SARS-CoV-2; assay: Anti-viral experiment with Golden Syrian hamsters: histopathology scores; type: in vivo, Golden Syrian hamsters (Mesocricetus auratus); settings: for trachea, epithelial damage (score) / bronchi, epithelial damage (score) / pulmonary parenchyma damage (score) / submucosal damage (score) / tissue repair (score) / vascular damage (score): 1 mg/kg s.c., individual hamsters; for trachea, epithelial damage (score): 0 normal, 1 mild, 2 moderate, 3 severe tracheitis; for bronchi, epithelial damage (score) / pulmonary parenchyma damage (score) / submucosal damage (score) / tissue repair (score) / vascular damage (score): sum of five lung lobes, maximum 15

CCCC[C@H](NC(=O)[C@H](CC(C)C)NC(=O)OCc1ccccc1)C(O)S(=O)(=O)[O-].[Na+] (stereo partly drawn) [S-Calpeptin]
Viral titer (% control) ([1]; 0.0391 μM): 100 % control | Viral titer (% control) ([1]; 0.0781 μM): 100 % control | Viral titer (% control) ([1]; 0.1563 μM): 100 % control | Viral titer (% control) ([1]; 0.3125 μM, listed as S-Calpepin): 56.49 % control and 49.6 % control | Viral titer (% control) ([1]; 0.625 μM, listed as S-Calpepin): 69.04 % control and 44.94 % control | Viral titer (% control) ([1]; 1.25 μM, listed as S-Calpepin): 38.67 % control and 33.45 % control | Viral titer (% control) ([1]; 2.5 μM, listed as S-Calpepin): 33.13 % control and 30.16 % control | Viral titer (% control) ([1]; 100 μM): 0 % control | Cell viability (% control) ([2]; 0.0781 μM): 99.91 % control and 99.99 % control and 93.43 % control | Cell viability (% control) ([2]; 0.1563 μM): 101.27 % control and 99.33 % control and 91.02 % control | Cell viability (% control) ([2]; 0.3125 μM): 98.12 % control and 96.79 % control and 88.9 % control and 104.51 % control and 93.11 % control and 88.49 % control | Cell viability (% control) ([2]; 0.625 μM): 102.02 % control and 99.32 % control and 91.53 % control and 106.07 % control and 99.18 % control and 92.52 % control | Cell viability (% control) ([2]; 1.25 μM): 101.8 % control and 101.21 % control and 92.78 % control and 102.28 % control and 98.11 % control and 94.97 % control | Cell viability (% control) ([2]; 2.5 μM): 103.7 % control and 100.66 % control and 93.92 % control and 107.86 % control and 99.28 % control and 84.04 % control | Cell viability (% control) ([2]; 5 μM): 103.66 % control and 103.11 % control and 94.78 % control and 109.88 % control and 106.46 % control and 91.66 % control | Cell viability (% control) ([2]; 10 μM): 95.16 % control and 96.86 % control and 93.25 % control and 107.42 % control and 101.38 % control and 83.78 % control | cytotoxicity (in words) ([2]; VERO-CCL81, 72 h): no cytotoxicity up to low micromolar concentrations | Residual activity (Vi/V0) ([3]; inhibitor 0.010 nM, 10 pM): 1.426 and 1.05 and 1.025 and 1.009 and 1.011 and 1.078 and 1.028 and 1.031 and 1.036 and 1.201 | Residual activity (Vi/V0) ([3]; inhibitor 0.018 nM, 18 pM): 1.349 and 1.024 and 1.036 and 0.8728 and 0.9988 and 0.9818 (2×) and 1.042 and 1.062 and 1.149 | Residual activity (Vi/V0) ([3]; inhibitor 0.032 nM, 32 pM): 1.453 and 0.9142 and 1.1 and 1.088 and 1.079 and 0.9024 and 0.9567 and 1.006 and 0.9803 and 1.2694 | Residual activity (Vi/V0) ([3]; inhibitor 0.058 nM, 58 pM): 1.377 and 1.0256 and 0.8968 and 0.9231 and 0.8862 and 0.9577 and 1.001 and 1.006 and 1.052 and 1.254 | Residual activity (Vi/V0) ([3]; inhibitor 0.105 nM, 0.000105 µM): 1.053 and 0.914 and 0.68 and 0.6925 and 0.711 and 0.8569 and 0.909 and 1.0072 and 0.8377 and 1.071 | Residual activity (Vi/V0) ([3]; inhibitor 0.189 nM, 0.000189 µM): 0.9886 and 0.7158 and 0.5095 and 0.5746 and 0.5088 and 0.7745 and 0.7818 and 0.8193 and 0.7501 and 1.054 | Residual activity (Vi/V0) ([3]; inhibitor 0.340 nM, 0.00034 µM): 0.5984 and 0.5107 and 0.3117 and 0.3431 and 0.2757 and 0.5388 and 0.5659 and 0.5589 and 0.4129 and 0.6122 | Residual activity (Vi/V0) ([3]; inhibitor 0.612 nM, 0.000612 µM): 0.6669 and 0.3311 and 0.2683 and 0.3139 and 0.2767 and 0.6359 and 0.6301 and 0.62 and 0.515 and 0.8313 | Residual activity (Vi/V0) ([3]; inhibitor 1.103 nM, 0.001103 µM): 0.5114 and 0.2133 and 0.2013 and 0.1965 and 0.1624 and 0.4143 and 0.3924 and 0.3311 and 0.3975 and 0.5758 | Residual activity (Vi/V0) ([3]; inhibitor 1.985 nM, 0.001985 µM): 0.3099 and 0.145 and 0.1192 and 0.1108 and 0.1144 and 0.3088 and 0.318 and 0.3267 and 0.2219 and 0.2968 | Ki ([3]; mean with standard deviation and 95% confidence interval, pH 5.5, 37 °C): 0.148 nM | trachea, epithelial damage (score) ([4]; day 3 p.i., 1 mg/kg): 0 and 1 | bronchi, epithelial damage (score) ([4]; day 3 p.i., 1 mg/kg): 6 and 3 and 1 and 4 | pulmonary parenchyma damage (score) ([4]; day 3 p.i., 1 mg/kg): 7 and 4 and 5 and 8 | submucosal damage (score) ([4]; day 3 p.i., 1 mg/kg): 7 and 2 and 1 and 5 | tissue repair (score) ([4]; day 3 p.i., 1 mg/kg): 7 and 6 and 2 and 4 | vascular damage (score) ([4]; day 3 p.i., 1 mg/kg): 7 and 8 and 3 and 9 | trachea, epithelial damage (score) ([4]; day 5 p.i., 1 mg/kg): 0 and 1 and 2 | bronchi, epithelial damage (score) ([4]; day 5 p.i.): 2 | pulmonary parenchyma damage (score) ([4]; day 5 p.i., 1 mg/kg): 7 and 10 and 9 | submucosal damage (score) ([4]; day 5 p.i., 1 mg/kg): 8 and 11 and 9 and 10 | tissue repair (score) ([4]; day 5 p.i., 1 mg/kg): 6 and 8 and 9 and 10 | vascular damage (score) ([4]; day 5 p.i., 1 mg/kg): 10 and 9 and 11 and 13 | trachea, epithelial damage (score) ([4]; day 7 p.i., 1 mg/kg): 0 and 1 | bronchi, epithelial damage (score) ([4]; day 7 p.i., 1 mg/kg): 2 and 3 and 1 | pulmonary parenchyma damage (score) ([4]; day 7 p.i., 1 mg/kg): 8 and 7 and 10 | submucosal damage (score) ([4]; day 7 p.i., 1 mg/kg): 10 and 11 and 14 | tissue repair (score) ([4]; day 7 p.i., 1 mg/kg): 15 and 14 | vascular damage (score) ([4]; day 7 p.i., 1 mg/kg): 7 and 5 and 9 | histopathology lesion scores versus untreated (in words) ([4]; infected hamsters, 1 mg/kg s.c. daily): no statistically significant differences in lesion scores | lung vascular damage scores versus untreated (in words) ([4]; infected hamsters, 1 mg/kg s.c. daily, days 5 and 7 p.i.): lower scores for vascular damage compared to the untreated group on days 5 and 7 p.i., these results were not statistically significant

— paper PMC10584882 (Communications Biology, 2023)
